Measured values as given in PMC7619385 (ACS infectious diseases, 2025).
Read-outs that look alike come from different tables or passages of the source.

Key:
NLuc::LmxCLK1 = NLuc::LmxCLK1 (Leishmania mexicana, UniProt E9AMP2); assay: cell-based; type: cell-based; conditions: for Target occupancy Run 1 / Target occupancy Run 2 / Target occupancy Average: 10 µM compound, tracer SV366, promastigotes; for Target occupancy Average: mean of two experiments
Procedure: All compounds were tested at a fixed concentration of 10 µM to enable direct comparison of their target occupancy in live cells.
Serially diluted probes (5 µL) were added to 85 µL of cells in culture media or 85 µL of purified protein. Final well volumes were adjusted to 100 µL with sterile Opti-MEM™ I Reduced Serum Medium (Thermo-Scientific) – for wells containing cells; or Kinase Buffer - for wells containing purified protein. For tracer displacement assays, samples were prepared as above, but final volume was brought to 100 µL by addition of vehicle or serially-diluted test compounds. Final DMSO concentration in these assays was 1%. […] Light emissions at 460+10 nm (BRET donor) and at 610+20 nm (BRET acceptor) were sequentially recorded (integration time = 0.5 s, gain = 3600) using a luminometer (BMG LABTECH Clariostar or Biotek Synergy HT). BRET values are reported in milli-BRET (mBRET) units (mBU), obtained by dividing the acceptor luminescence by the donor luminescence and multiplying the result by a factor of 1,000. BRET values were converted to blank-corrected probe occupancies (%) according to equation [1]: (1) Probeoccupancy(%)=X−Z/Y−Z×100 where X = mBRET value in the presence of the test compound and the probe, Y = mBRET value in the presence of probe only, and Z = mBRET value in the absence of probe and test compound. […]

LmxCLK1 = target: T1, LmxCLK1 (Leishmania mexicana, UniProt E9AMP2); assay: biochemical; type: binding
T1 sequence (E9AMP2 1-422): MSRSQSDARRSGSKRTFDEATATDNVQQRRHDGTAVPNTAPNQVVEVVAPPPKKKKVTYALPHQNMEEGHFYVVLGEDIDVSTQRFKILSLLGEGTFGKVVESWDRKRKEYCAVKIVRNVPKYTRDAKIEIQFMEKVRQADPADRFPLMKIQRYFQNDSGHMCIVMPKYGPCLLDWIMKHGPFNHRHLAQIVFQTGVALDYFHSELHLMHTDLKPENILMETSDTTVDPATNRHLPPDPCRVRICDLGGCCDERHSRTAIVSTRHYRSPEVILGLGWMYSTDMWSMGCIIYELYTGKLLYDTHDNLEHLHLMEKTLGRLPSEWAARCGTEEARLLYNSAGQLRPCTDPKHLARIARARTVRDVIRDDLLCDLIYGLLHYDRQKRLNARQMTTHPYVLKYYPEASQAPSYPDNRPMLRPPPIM

[1] = read-out: Target occupancy Average
[2] = read-out: Target occupancy Run 1
[3] = read-out: Target occupancy Run 2
[4] = DSF, 10 µM compound, 2 µM LmxCLK1, Run 1, read-out: ΔTm Run 1
[5] = DSF, 10 µM compound, 2 µM LmxCLK1, Run 2, read-out: ΔTm Run 2
[6] = DSF, 10 µM compound, 2 µM LmxCLK1, mean of two runs, read-out: ΔTm Average
[7] = DSF, 10 µM compound, 2 µM LmxCLK1, Run 1
[8] = DSF, 10 µM compound, 2 µM LmxCLK1, Run 2
[9] = DSF, 10 µM compound, 2 µM LmxCLK1, mean of two runs

Compound | ΔTm at 10 µM (LmxCLK1; [4]) [°C] | ΔTm at 10 µM (LmxCLK1; [5]) [°C] | ΔTm at 10 µM (LmxCLK1; [6]) [°C] | ΔTm Run 1 (LmxCLK1; [7]) [°C] | ΔTm Run 2 (LmxCLK1; [8]) [°C] | ΔTm Average (LmxCLK1; [9]) [°C] | further results
Cn1cnc(N)c2ncnc1-2 [3-Methyladenine] | 0.2 | 0 | 0.1 | – | – | – | receptor occupancy at 10 µM (NLuc::LmxCLK1; [1]): -2.2%; receptor occupancy at 10 µM (NLuc::LmxCLK1; [2]): 2.8%; receptor occupancy at 10 µM (NLuc::LmxCLK1; [3]): -7.1%
N#Cc1c(O)c2c(-c3ccc(-c4ccccc4O)cc3)csc2[nH]c1=O [A-769662] | – | – | – | – | – | – | Target occupancy Run 1 (NLuc::LmxCLK1): 1.2%; Target occupancy Run 2 (NLuc::LmxCLK1): -1.3%; Target occupancy Average (NLuc::LmxCLK1): 0.0%; ΔTm Average (LmxCLK1): -0.1; ΔTm Run 1 (LmxCLK1): -0.1; ΔTm Run 2 (LmxCLK1): 0 °C
N#C/C(=C/c1ccc(O)c(O)c1)C(=O)NCc1ccccc1 [AG-490 (Tyrphostin B42)] | – | – | – | 0.1 | 0.2 | 0.1 | Target occupancy Run 1 (NLuc::LmxCLK1): -25.0%; Target occupancy Run 2 (NLuc::LmxCLK1): -10.6%; Target occupancy Average (NLuc::LmxCLK1): -17.8%
C=CC(=O)Nc1ccc2ncnc(Nc3ccc(OCc4cccc(F)c4)c(Cl)c3)c2c1 [AST-1306] | -0.1 | -0.4 | -0.2 | – | – | – | receptor occupancy at 10 µM (NLuc::LmxCLK1; [1]): -9.2%; receptor occupancy at 10 µM (NLuc::LmxCLK1; [2]): -7.7%; receptor occupancy at 10 µM (NLuc::LmxCLK1; [3]): -10.7%
O=C(NC1CCNCC1)c1[nH]ncc1NC(=O)c1c(Cl)cccc1Cl [AT7519] | 0.4 | 0.5 | 0.4 | – | – | – | receptor occupancy at 10 µM (NLuc::LmxCLK1; [1]): -13.8%; receptor occupancy at 10 µM (NLuc::LmxCLK1; [2]): 6.4%; receptor occupancy at 10 µM (NLuc::LmxCLK1; [3]): -34%
N[C@@H]1CCCN(c2c(/C=C3\SC(=O)NC3=O)cccc2-c2ccccc2)C1 [AZD1208] | – | – | – | 0.1 | -0.4 | -0.1 | Target occupancy Run 1 (NLuc::LmxCLK1): 5.0%; Target occupancy Run 2 (NLuc::LmxCLK1): -7.9%; Target occupancy Average (NLuc::LmxCLK1): -1.4%
C[C@H](Nc1ncnc2nc[nH]c12)c1cc2cccc(Cl)c2c(=O)n1-c1ccccc1 [IPI-145 (INK1197)] | – | – | – | – | – | – | Target occupancy Run 1 (NLuc::LmxCLK1): -2.8%; Target occupancy Run 2 (NLuc::LmxCLK1): 0.6%; Target occupancy Average (NLuc::LmxCLK1): -1.1%
CC(=O)Nc1cccc(-n2c(=O)n(C3CC3)c(=O)c3c(Nc4ccc(I)cc4F)n(C)c(=O)c(C)c32)c1 [Trametinib (GSK1120212)] | 0 | -0.5 | -0.2 | – | – | – | –
CC(C)(C)c1cc(C=C(C#N)C#N)cc(C(C)(C)C)c1O [Tyrphostin 9] | – | – | – | -0.3 | -0.3 | -0.3 | –
CC(C)(C)c1cc(/C=C(\C#N)C(N)=S)cc(C(C)(C)C)c1O [Tyrphostin AG 879] | -0.1 | -0.2 | -0.2 | – | – | – | –
COc1cc2ncc(-c3ccccc3)nc2cc1OC [Tyrphostin AG 1296] | – | – | – | 0.3 | 0.1 | 0.2 | –
CCO.N#CC(=C(/N)Sc1ccccc1N)/C(C#N)=C(\N)Sc1ccccc1N [U0126-EtOH] | – | – | – | – | – | – | ΔTm Average (LmxCLK1): -0.1; ΔTm Run 1 (LmxCLK1): -0.4; ΔTm Run 2 (LmxCLK1): 0.1 °C
CNCc1ccc(-c2cc(-c3nc(-c4ccc(S(=O)(=O)C(C)C)cc4)cnc3N)on2)cc1 [VE-822] | 0.6 | 0.1 | 0.4 | – | – | – | –
Cc1cc(Nc2cc(N3CCN(C)CC3)nc(Sc3ccc(NC(=O)C4CC4)cc3)n2)n[nH]1 [VX-680 (Tozasertib)] | – | – | – | -0.3 | -0.4 | -0.3 | –
NC(=O)c1ccc(N(C(N)=O)c2c(F)cccc2F)nc1-c1ccc(F)cc1F [VX-702] | 0.3 | -0.2 | 0 | – | – | – | –
O=c1ncn2nc(Sc3ccc(F)cc3F)ccc2c1-c1c(Cl)cccc1Cl [VX-745] | 0.4 | 0.2 | 0.3 | – | – | – | –
COc1cc2/c(=N/c3ccc(Br)cc3F)nc[nH]c2cc1OCC1CCN(C)CC1 [Vandetanib (ZD6474)] | – | – | – | 0.0 | -0.1 | -0.1 | –
Cl.Cl.Clc1ccc(Nc2nnc(Cc3ccncc3)c3ccccc23)cc1 [Vatalanib (PTK787) 2HCl] | – | – | – | -0.2 | 0.0 | -0.1 | –
CCCS(=O)(=O)Nc1ccc(F)c(C(=O)c2c[nH]c3ncc(-c4ccc(Cl)cc4)cc23)c1F [Vemurafenib (PLX4032)] | – | – | – | -0.1 | -0.1 | -0.1 | –
CC[C@@H]1C(=O)N(C)c2cnc(Nc3ccc(C(=O)N[C@H]4CC[C@H](N5CCN(CC6CC6)CC5)CC4)cc3OC)nc2N1C(C)C [Volasertib (BI 6727)] | – | – | – | 0.3 | 0.0 | 0.2 | –

Compound | ΔTm at 10 µM (LmxCLK1; [4]) [°C] | ΔTm at 10 µM (LmxCLK1; [5]) [°C] | ΔTm at 10 µM (LmxCLK1; [6]) [°C] | ΔTm Run 1 (LmxCLK1; [7]) [°C] | ΔTm Run 2 (LmxCLK1; [8]) [°C] | ΔTm Average (LmxCLK1; [9]) [°C] | further results
COc1ccc(N(C(=O)Oc2c(C)cccc2C)c2ccnc(Nc3ccc(N4CCN(C)CC4)cc3)n2)c(OC)c1 [WH-4-023] | – | – | – | – | – | – | ΔTm Average (LmxCLK1): -0.3; ΔTm Run 1 (LmxCLK1): -0.4; ΔTm Run 2 (LmxCLK1): -0.2
COC(=O)Nc1ccc(-c2nc(N3CCOCC3)c3cnn(C4CCN(C(=O)OC)CC4)c3n2)cc1 [WYE-354] | – | – | – | -0.1 | -0.2 | -0.1 | –
CNC(=O)Nc1ccc(-c2nc(N3CC4CCC(C3)O4)c3cnn(C4CCC5(CC4)OCCO5)c3n2)cc1 [WYE-125132 (WYE-132)] | – | – | – | 0.2 | -0.1 | 0.0 | –
C=CC(=O)Nc1cccc(Oc2nc(Nc3ccc(N4CCN(C)CC4)cc3OC)ncc2Cl)c1 [WZ4002] | -0.1 | -0.3 | -0.2 | – | – | – | –
CCC(=O)Nc1cccc(Oc2nc(Nc3ccc(N4CCN(C)CC4)cc3OC)ncc2Cl)c1 [WZ4003] | 0.1 | -0.1 | 0 | – | – | – | –
O=C(Nc1ccc(-c2ccnc(Nc3ccc(N4CCOCC4)cc3)n2)cc1)C1CCCN1 (centres unmarked) [XL019] | 0.6 | 0.4 | 0.5 | – | – | – | –
CCOc1cc(N2CCC(O)CC2)ccc1Nc1ncc2c(n1)N(C)c1ccccc1C(=O)N2C [XMD8-92] | – | – | – | – | – | – | ΔTm Average (LmxCLK1): -0.3; ΔTm Run 1 (LmxCLK1): -0.2; ΔTm Run 2 (LmxCLK1): -0.5
C[C@@H](N)[C@H]1CC[C@H](C(=O)Nc2ccncc2)CC1.Cl.Cl [Y-27632 2HCl] | – | – | – | 0.1 | 0.1 | 0.1 | –
Nc1ccc(C(=O)Nc2cccc(-c3nc(N4CCOCC4)c4oc5ncccc5c4n3)c2)cn1 [YM201636] | – | – | – | – | – | – | ΔTm Run 1 (LmxCLK1): 0.4 °C; ΔTm Run 2 (LmxCLK1): 0 °C
Cc1cc(C)nc(NS(=O)(=O)c2ccc(NC(=S)NC(=O)COc3ccc(Br)cc3Cl)cc2)n1 [ZCL278] | – | – | – | 0.1 | -0.1 | 0.0 | –
COc1cc2ncnc(Nc3ccc(Cl)cc3F)c2cc1OC [ZM 306416] | – | – | – | 0.2 | 0.0 | 0.1 | –
Cc1cc(F)c(Nc2ncnc3cc(OCc4ccccc4)ccc23)cc1O.Cl [ZM 323881 HCl] | – | – | – | 0.1 | 0.0 | 0.0 | –
COc1cc2c(Nc3ccc(NC(=O)c4ccccc4)cc3)ncnc2cc1OCCCN1CCOCC1 [ZM 447439] | – | – | – | 0.0 | -0.2 | -0.1 | –
FC(F)c1nc2ccccc2n1-c1nc(N2CCOCC2)nc(N2CCOCC2)n1 [ZSTK474] | 0 | 0 | 0 | – | – | – | –
CO[C@H]1C[C@@H]2CC[C@@H](C)[C@@](O)(O2)C(=O)C(=O)N2CCCC[C@H]2C(=O)O[C@H]([C@H](C)C[C@@H]2CC[C@H](n3cnnn3)[C@H](OC)C2)CC(=O)[C@H](C)/C=C(\C)[C@@H](O)[C@@H](OC)C(=O)[C@H](C)C[C@H](C)/C=C/C=C/C=C/1C [Zotarolimus(ABT-578)] | – | – | – | 0.2 | 0.0 | 0.1 | –
CA75 (GAK) | – | – | – | – | – | – | ΔTm Average (LmxCLK1): -0.1; ΔTm Run 1 (LmxCLK1): -0.2; ΔTm Run 2 (LmxCLK1): 0 °C
HER2-Inhibitor-1 | – | – | – | 0.2 | -0.1 | 0.1 | –
PHT-427 | – | – | – | 0.4 | 0.3 | 0.3 | –
S-Ruxolitinib (INCB018424) | – | – | – | 0.6 | 0.6 | 0.6 | –
